The assay in a line: [3H]-Epibatidine Radioligand Binding Assay: Briefly, cultured cells at >80% confluence were removed from their flasks (80 cm^2) with a disposable cell scraper and placed in 10 mL of 50 mM Tris.HCl buffer (pH 7.4, 4 °C.). The cell suspension was centrifuged at 10,000×g for 5 min and the pellet was collected. The cell pellet was then homogenized in 10 mL buffer with a polytron homogenizer and centrifuged at 36,000 g for 10 min at 4 °C. The membrane pellet was resuspended in fresh buffer, and aliquots of the membrane preparation were used for binding assays. The concentration of [3H]-epibatidine used was ~500 pM for competition binding assays. […] Bound and free ligands were separated by vacuum filtration through Whatman GF/C filters treated with 0.5% polyethylenimine. The filter-retained radioactivity was measured by liquid scintillation counting. Specific binding was defined as the difference between total binding and nonspecific binding. Data from competition binding assays were analyzed using Prism 5 (GraphPad Software, San Diego, Calif.).

Consider `CCCCC#Cc1cnc(C(F)(F)F)c(OC[C@@H]2CCN2)c1`, for which the Ki is more than 100 µM.

For the origin of these results see ChEMBL document CHEMBL3886639, “2,5-disubstituted-pyridyl nicotinic ligands, and methods of use thereof” (2016).
